In patent US20160207930A1 (LEO PHARMA A/S, priority 2013, published 2016):

Assays:
[1] = molecular target: T1, NK1 Receptor (Homo sapiens, UniProt P25103); assay: NK1 receptor mediated intracellular [Ca2+] mobilization in U251 MG cells using FLIPR; type: cell-based; conditions: antagonism of Substance P (EC80), Fluo-4, read-out: NK1R mediated intracellular [Ca^2+] mobilization IC 50
T1 construct: Measurement of NK1 Receptor Mediated Intracellular [Ca^2+]; Mobilization in U251 MG Cells Using FLIPR; endogenous in cells; host or cells: U251 MG cells
T1 sequence (P25103 whole entry): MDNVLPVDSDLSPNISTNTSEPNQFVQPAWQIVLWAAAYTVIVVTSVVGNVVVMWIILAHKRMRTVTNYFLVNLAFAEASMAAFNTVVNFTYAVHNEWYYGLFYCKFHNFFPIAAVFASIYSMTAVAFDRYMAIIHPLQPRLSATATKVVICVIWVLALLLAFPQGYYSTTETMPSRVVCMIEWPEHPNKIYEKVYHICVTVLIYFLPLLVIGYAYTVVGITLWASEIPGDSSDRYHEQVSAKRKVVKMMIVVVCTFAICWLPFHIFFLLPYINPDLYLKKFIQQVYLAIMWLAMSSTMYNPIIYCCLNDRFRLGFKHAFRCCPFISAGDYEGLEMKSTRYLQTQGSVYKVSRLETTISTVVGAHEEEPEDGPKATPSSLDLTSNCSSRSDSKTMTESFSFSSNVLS
Outline: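 Fluo-4-loaded U251 MG cells preincubated with compound (0.5% DMSO final), checked 5 min for agonism, then 10 min at 37 °C before Substance P at EC80. Peak fluorescence change on FLIPR, normalized to 100 nM Aprepitant maximal response; IC50 by four-parameter logistic fit, reported as pIC50.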

[2] = Hepatic intrinsic clearance following incubation in human liver microsomes; type: in vitro ADME; conditions: 0.5 μM test compound, NADPH, 0-30 min, scaled to g liver
Outline: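 Compound incubated at 37° C with microsomes diluted to 0.55 mg/mL protein in 50 mM potassium phosphate pH 7.4 plus NADPH regenerating system; sampled 0–30 min and analysed by LC-MS/MS. Clint from ln(% parent remaining) slope, scaled to mL/min/g liver; Eh derived assuming 25.7 g/kg liver, 20.7 mL/min/kg blood flow.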

IC50 [1] | Human in vitro Clint [2] | SMILES
0.353 nM | >200 mL/min/g | Cc1cc([C@@H](C)N(C)C(=O)N2CCN3C(=O)CC[C@H]3[C@@H]2c2sccc2C)cc(C(F)(F)F)c1 [Compound 52, (1R,8aS)—N-methyl-N—((R)-1-(3-methyl-5-(trifluoromethyl)phenyl)ethyl)-1-(3-methylthiophen-2-yl)-6-oxohexahydropyrrolo[1,2-a]pyrazine-2(1H)-carboxamide]
0.43 nM | >200 mL/min/g | C[C@H](c1cc(C(F)(F)F)cc(C(F)(F)F)c1)N(C)C(=O)N1CCN2C(=O)CC[C@H]2[C@@H]1c1cccs1 [Compound 53, (1R,8aS)—N—((R)-1-(3,5-bis(trifluoromethyl)phenyl)ethyl)-N-methyl-6-oxo-1-(thiophen-2-yl)hexahydropyrrolo[1,2-a]pyrazine-2(1H)-carboxamide]
0.514 nM | >200 mL/min/g | CCc1cc([C@@H](C)N(C)C(=O)N2CCN3C(=O)CC[C@H]3[C@@H]2c2cccs2)cc(C(F)(F)F)c1 [Compound 54, (1R,8aS)—N—((R)-1-(3-ethyl-5-(trifluoromethyl)phenyl)ethyl)-N-methyl-6-oxo-1-(thiophen-2-yl)hexahydropyrrolo[1,2-a]pyrazine-2(1H)-carboxamide]
1.58 nM | >200 mL/min/g | Cc1cc([C@@H](C)N(C)C(=O)N2CCN3C(=O)CC[C@H]3[C@@H]2c2ccsc2C)cc(C(F)(F)F)c1 [Compound 55, (1S,8aS)—N-methyl-N—((R)-1-(3-methyl-5-(trifluoromethyl)phenyl)ethyl)-1-(2-methylthiophen-3-yl)-6-oxohexahydropyrrolo[1,2-a]pyrazine-2(1H)-carboxamide]
1.51 nM | >200 mL/min/g | CCc1cc([C@@H](C)N(C)C(=O)N2CCN3C(=O)CC[C@H]3[C@@H]2c2ccsc2C)cc(C(F)(F)F)c1 [Compound 56, (1S,8aS)—N—((R)-1-(3-ethyl-5-(trifluoromethyl)phenyl)ethyl)-N-methyl-1-(2-methylthiophen-3-yl)-6-oxohexahydropyrrolo[1,2-a]pyrazine-2(1H)-carboxamide]
0.152 nM | >200 mL/min/g | Cc1sccc1[C@H]1[C@@H]2CCC(=O)N2CCN1C(=O)N(C)[C@H](C)c1cc(C(F)(F)F)cc(C(F)(F)F)c1 [Compound 57, (1S,8aS)—N—((R)-1-(3,5-bis(trifluoromethyl)phenyl)ethyl)-N-methyl-1-(2-methylthiophen-3-yl)-6-oxohexahydropyrrolo[1,2-a]pyrazine-2(1H)-carboxamide]
28.6 nM | >200 mL/min/g | Cc1ncc([C@H]2[C@@H]3CCC(=O)N3CCN2C(=O)N(C)[C@H](C)c2cc(C(F)(F)F)cc(C(F)(F)F)c2)s1 [Compound 58, (1R,8aS)—N—((R)-1-(3,5-bis(trifluoromethyl)phenyl)ethyl)-N-methyl-1-(2-methylthiazol-5-yl)-6-oxohexahydropyrrolo[1,2-a]pyrazine-2(1H)-carboxamide]
29.4 nM | >200 mL/min/g | C[C@H](c1cc(C(F)(F)F)cc(C(F)(F)F)c1)N(C)C(=O)N1CCN2C(=O)CC[C@H]2[C@@H]1c1cncs1 [Compound 59, (1R,8aS)—N—((R)-1-(3,5-bis(trifluoromethyl)phenyl)ethyl)-N-methyl-6-oxo-1-(thiazol-5-yl)-hexahydropyrrolo[1,2-a]pyrazine-2(1H)-carboxamide]
59 nM | >200 mL/min/g | CCc1cc([C@@H](C)N(C)C(=O)N2CCN3C(=O)CC[C@H]3[C@@H]2c2c[nH]nc2C)cc(C(F)(F)F)c1 [Compound 61, (1S,8aS)—N—((R)-1-(3-ethyl-5-(trifluoromethyl)phenyl)ethyl)-N-methyl-1-(3-methyl-1H-pyrazol-4-yl)-6-oxohexahydropyrrolo[1,2-a]pyrazine-2(1H)-carboxamide]
1.07 nM | 115 mL/min/g | CCc1cc([C@@H](C)N(C)C(=O)N2CCN3C(=O)C(CCO)(CCO)C[C@H]3[C@@H]2c2c[nH]nc2C)cc(C(F)(F)F)c1 [Compound 62, (1S,8aS)—N—((R)-1-(3-ethyl-5-(trifluoromethyl)phenyl)ethyl)-7,7-bis(2-hydroxyethyl)-N-methyl-1-(3-methyl-1H-pyrazol-4-yl)-6-oxohexahydropyrrolo[1,2-a]pyrazine-2(1H)-carboxamide]
9.29 nM | 51 mL/min/g | Cc1cc([C@@H](C)N(C)C(=O)N2CCN3C(=O)C(CCO)(CCO)C[C@H]3[C@@H]2c2c[nH]nc2C)cc(C(F)(F)F)c1 [Compound 63, (1S,8aS)-7,7-bis(2-hydroxyethyl)-N-methyl-1-(3-methyl-1H-pyrazol-4-yl)-N—((R)-1-(3-methyl-5-(trifluoromethyl)phenyl)ethyl)-6-oxo-hexahydropyrrolo[1,2-a]pyrazine-2(1H)-carboxamide]
1.23 nM | 67 mL/min/g | Cc1nn(C)cc1[C@H]1[C@@H]2CCC(=O)N2CCN1C(=O)N(C)[C@H](C)c1cc(C(F)(F)F)cc(C(F)(F)F)c1 [Compound 64, (1S,8aS)—N—((R)-1-(3,5-bis(trifluoromethyl)phenyl)ethyl)-1-(1,3-dimethyl-1H-pyrazol-4-yl)-N-methyl-6-oxohexahydropyrrolo[1,2-a]pyrazine-2(1H)-carboxamide]
0.365 nM | >200 mL/min/g | Cc1cc([C@@H](C)N(C)C(=O)N2CCN3C(=O)CC[C@H]3[C@@H]2c2cccc(C)c2C)cc(C(F)(F)F)c1 [Compound 65]
0.14 nM | 51 mL/min/g | Cc1c(Cl)cccc1[C@H]1[C@@H]2CCC(=O)N2CCN1C(=O)N(C)[C@H](C)c1cc(C(F)(F)F)cc(C(F)(F)F)c1 [Compound 66, (1S,8aS)—N—((R)-1-(3,5-bis(trifluoromethyl)phenyl)ethyl)-1-(3-chloro-2-methylphenyl)-N-methyl-6-oxohexahydropyrrolo[1,2-a]pyrazine-2(1H)-carboxamide]
0.26 nM | >200 mL/min/g | CCc1ccccc1[C@H]1[C@@H]2CCC(=O)N2CCN1C(=O)N(C)[C@H](C)c1cc(C(F)(F)F)cc(C(F)(F)F)c1 [Compound 68, N—((R)-1-(3,5-bis(trifluoromethyl)phenyl)ethyl)-1-(2-ethylphenyl)-N-methyl-6-oxohexahydropyrrolo[1,2-a]pyrazine-2(1H)-carboxamide]
0.11 nM | >200 mL/min/g | C[C@H](c1cc(C(F)(F)F)cc(C(F)(F)F)c1)N(C)C(=O)N1CCN2C(=O)CC[C@H]2[C@@H]1c1ccccc1CO [Compound 74, (1S,8aS)—N—((R)-1-(3,5-bis(trifluoromethyl)phenyl)ethyl)-1-(2-(hydroxymethyl)phenyl)-N-methyl-6-oxohexahydropyrrolo[1,2-a]pyrazine-2(1H)-carboxamide]
0.34 nM | >200 mL/min/g | Cc1csc([C@H]2[C@@H]3CCC(=O)N3CCN2C(=O)N(C)[C@H](C)c2cc(C(F)(F)F)cc(C(F)(F)F)c2)c1C [Compound 75, (1R,8aS)—N—((R)-1-(3,5-bis(trifluoromethyl)phenyl)ethyl)-1-(3,4-dimethylthiophen-2-yl)-N-methyl-6-oxohexahydropyrrolo[1,2-a]pyrazine-2(1H)-carboxamide]
0.26 nM | >200 mL/min/g | CCc1cc([C@@H](C)N(C)C(=O)N2CCN3C(=O)CC[C@H]3[C@@H]2c2scc(C)c2C)cc(C(F)(F)F)c1 [Compound 76, (1R,8aS)-1-(3,4-dimethylthiophen-2-yl)-N—((R)-1-(3-ethyl-5-(trifluoromethyl)phenyl)ethyl)-N-methyl-6-oxohexahydropyrrolo[1,2-a]pyrazine-2(1H)-carboxamide]
0.52 nM | >200 mL/min/g | COc1cccc([C@H]2[C@@H]3CCC(=O)N3CCN2C(=O)N(C)[C@H](C)c2cc(C(F)(F)F)cc(C(F)(F)F)c2)c1C [Compound 77, (1S,8aS)—N—((R)-1-(3,5-bis(trifluoromethyl)phenyl)ethyl)-1-(3-methoxy-2-methylphenyl)-N-methyl-6-oxohexahydropyrrolo[1,2-a]pyrazine-2(1H)-carboxamide]
1.86 nM | >200 mL/min/g | COc1cccc([C@H]2[C@@H]3CCC(=O)N3CCN2C(=O)N(C)[C@H](C)c2cc(C(C)C)cc(C(F)(F)F)c2)c1C [Compound 78, (1S,8aS)—N—((R)-1-(3-isopropyl-5-(trifluoromethyl)phenyl)ethyl)-1-(3-methoxy-2-methylphenyl)-N-methyl-6-oxohexahydropyrrolo[1,2-a]pyrazine-2(1H)-carboxamide]
2.57 nM | >200 mL/min/g | C[C@H](c1cc(C(F)(F)F)cc(C(F)(F)F)c1)N(C)C(=O)N1CCN2C(=O)CC[C@H]2[C@@H]1c1cccc2c1CCC2 [Compound 79, (1S,8aS)—N—((R)-1-(3,5-bis(trifluoromethyl)phenyl)ethyl)-1-(2,3-dihydro-1H-inden-4-yl)-N-methyl-6-oxohexahydropyrrolo[1,2-a]pyrazine-2(1H)-carboxamide]
0.79 nM | >200 mL/min/g | CCc1cc([C@@H](C)N(C)C(=O)N2CCN3C(=O)CC[C@H]3[C@@H]2c2cccc3c2CCC3)cc(C(F)(F)F)c1 [Compound 80, (1S,8aS)-1-(2,3-dihydro-1H-inden-4-yl)-N—((R)-1-(3-ethyl-5-(trifluoromethyl)phenyl)ethyl)-N-methyl-6-oxohexahydropyrrolo[1,2-a]pyrazine-2(1H)-carboxamide]
